We go through 1 compound from US20230390345A1, “COMBINATION THERAPY COMPRISING HER-2-DC1 VACCINE, A PROBIOTIC, AND SEMAPHORIN” (H. LEE MOFFITT CANCER CENTER AND RESEARCH INSTITUTE, INC., priority 2020, published 2023).

In test [1] the test system is 4T1. In words: Therapies in TNBC model 4T1 (FIG. 8). The class given is in vivo, Balb/C mice. As to conditions: 4T1 TNBC model. The procedure: (§1) Balb/C mice or C57BL/6 mice received tumor cells on day 0 followed by different treatments; two doses of Taxol given intraperitoneally (i.p.) once a week; CDK inhibitor, abemaciclib was administered by oral gavage till end point; Anti-PD-L1 was given i.p. twice a week until end point; DC1 vaccine was given intratumorally.

The subject of test [2] is TUBO tumors. In words: Monotherapies in HER2+ BC murine model (FIG. 8). In kind it is in vivo, Balb/C mice. Conditions: monotherapy. The procedure:
as §1

Take `CC(=O)O[C@H]1C(=O)[C@@]2(C)[C@H]([C@H](OC(=O)c3ccccc3)[C@]3(O)C[C@H](OC(=O)[C@H](O)[C@@H](NC(=O)c4ccccc4)c4ccccc4)C(C)=C1C3(C)C)[C@]1(OC(C)=O)CO[C@@H]1C[C@@H]2O` [taxol, paclitaxel]: the tumor growth entry in test [1] was “no effect on tumor growth”; in test [2], “modestly delayed tumor growth”.
